Laboratory results reported in the NIST ThermoML archive (doi:10.1021/acs.jced.8b01110).
Numbers after ± are expanded uncertainties.

Assays:
[1] = refractive index (Na D-line) (dimensionless); wn = mass fraction of the nth substance listed; conditions: 313.15 K, 88.4 kPa, Liquid, Standard Abbe refractometry
[2] = wn = mass fraction of the nth substance listed; conditions: 313.15 K, 88.4 kPa, Liquid; for viscosity: Capillary tube (Ostwald / Ubbelohde) method; for mass density: Pycnometric method

refractive index ([1]; w1 = 0.3289)	viscosity ([2]; w1 = 0.3289)	mass density ([2]; w1 = 0.3289)	Compound	refractive index ([1]; w1 = 0.5082)	viscosity ([2]; w1 = 0.5082)	mass density ([2]; w1 = 0.5082)
–	–	–	O=[N+]([O-])[O-].[Na+] [sodium nitrate] + O	1.39164 ± 0.00086	2.14 ± 0.43 mPa·s	1408.4 ± 10 kg/m3
1.37791 ± 0.00085	2.703 ± 0.54 mPa·s	1317 ± 10 kg/m3	O=S(=O)([O-])[O-].[Na+].[Na+] [sodium sulfate] + O	–	–	–
